Test results published in patent US7816522B2, “Triazolone derivatives” (Eisai Co., Ltd., priority 2006, dated 2010).
pIC50: −log10 of the molar value. Where a name gives a salt, the structure may show the parent alone.

Target: T1, human clotting factor VIIa (Homo sapiens, UniProt P08709)
T1 construct: a human clotting factor VIIa (hereinafter, “Factor VIIa”) purified sample; purchased Enzyme Research Laboratories HFVIIa
Test: Inhibitory activity against clotting factor VIIa (chromogenic substrate Spectrozyme FVIIa, TF/Factor VIIa enzyme solution)
Assay type: biochemical
Conditions: human Factor VIIa 5 nmol/L with human TF 10 nmol/L, room temperature 40 minutes, 405 nm
Outline: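 Human Factor VIIa (5 nmol/L) with human TF (10 nmol/L) in Tris-BSA buffer pH 7.4 containing 15 mmol/L CaCl2 and cephalin, with Spectrozyme FVIIa substrate. Reaction 40 min at room temperature; 4-nitroanilide read at 405 nm. IC50 by non-linear regression over 100 μmol/L–0.1 nmol/L.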

T1 sequence (P08709 213-466 limits assumed): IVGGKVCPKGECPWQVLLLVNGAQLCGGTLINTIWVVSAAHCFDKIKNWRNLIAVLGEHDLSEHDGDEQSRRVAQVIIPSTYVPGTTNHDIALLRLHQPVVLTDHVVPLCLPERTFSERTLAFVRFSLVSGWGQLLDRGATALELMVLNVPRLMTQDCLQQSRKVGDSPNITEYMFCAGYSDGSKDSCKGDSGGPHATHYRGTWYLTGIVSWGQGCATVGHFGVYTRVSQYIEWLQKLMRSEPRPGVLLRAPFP
T1 sequence (P08709 61-212 limits assumed): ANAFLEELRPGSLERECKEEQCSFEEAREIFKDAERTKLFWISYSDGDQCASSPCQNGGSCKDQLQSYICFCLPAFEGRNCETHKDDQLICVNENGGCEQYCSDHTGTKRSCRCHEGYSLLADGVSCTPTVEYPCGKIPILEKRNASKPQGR
T1 sequence (P13726 33-295 partner): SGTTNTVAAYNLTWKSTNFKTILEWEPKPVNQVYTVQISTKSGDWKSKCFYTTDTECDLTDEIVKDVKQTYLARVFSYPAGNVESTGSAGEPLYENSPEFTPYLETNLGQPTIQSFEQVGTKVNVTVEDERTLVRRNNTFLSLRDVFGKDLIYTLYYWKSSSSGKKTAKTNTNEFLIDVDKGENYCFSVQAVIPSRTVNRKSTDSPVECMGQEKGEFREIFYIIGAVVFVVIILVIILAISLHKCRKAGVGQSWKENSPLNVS

pIC50	SMILES
8.14	CCOc1cc(OCCO)cc(C(Nc2ccc(C(=N)N)cc2)c2nn(-c3ncccn3)c(=O)[nH]2)c1 (racemic) [Example 220, 4-{[[3-Ethoxy-5-(2-hydroxyethoxy)phenyl]-(5-oxo-1-pyrimidin-2-yl-4,5-dihydro-1H-[1,2,4]triazol-3-yl)methyl]amino}benzamidine]
7.61	COc1cc(OCC(=O)N(C)C)cc(C(Nc2ccc(C(=N)N)cc2)c2nn(-c3ncccn3)c(=O)[nH]2)c1 (racemic) [Example 62, (R) and (S)-2-{3-[(4-carbamimidoylphenylamino)-(5-oxo-1-pyrimidin-2-yl-4,5-dihydro-1H-[1,2,4]triazol-3-yl)methyl]-5-methoxyphenoxy}-N,N-dimethylacetamide acetate]
7.84	COc1cc(C(Nc2ccc(C(=N)N)cc2)c2nn(-c3ccccc3C(=O)O)c(=O)[nH]2)c(F)cc1OCCO (racemic) [Example 178, (R) and (S)-2-(3-{(4-carbamimidoylphenylamino)-[2-fluoro-4-(2-hydroxyethoxy)-5-methoxyphenyl]methyl}-5-oxo-4,5-dihydro-[1,2,4]triazol-1-yl)benzoic acid]
8.01	COc1cc(OC)cc(C(Nc2ccc(C(=N)N)cc2)c2nn(-c3ncccn3)c(=O)[nH]2)c1 (racemic) [Example 9, (R) and (S)-4-{[(3,5-dimethoxyphenyl)-(5-oxo-1-pyrimidin-2-yl-4,5-dihydro-1H-[1,2,4]triazol-3-yl)methyl]amino}benzamidine acetate]
8.41	COc1cc(OC2CCOCC2)cc(C(Nc2ccc(C(=N)N)cc2)c2nn(-c3ncccn3)c(=O)[nH]2)c1 (racemic) [Example 63, (R) and (S)-4-({[3-methoxy-5-(tetrahydropyran-4-yloxy)phenyl]-(5-oxo-1-pyrimidin-2-yl-4,5-dihydro-1H-[1,2,4]triazol-3-yl)methyl}amino)benzamidine acetate]
8.64	CCc1cc(OCCCO)c(F)c(C(Nc2ccc(C(=N)N)cc2)c2nn(-c3ncccc3N)c(=O)[nH]2)c1 (racemic) [Example 205, (R) and (S)-4-({[1-(3-Aminopyridin-2-yl)-5-oxo-4,5-dihydro-1H-[1,2,4]triazol-3-yl]-[5-ethyl-2-fluoro-3-(3-hydroxypropoxy)phenyl]methyl}amino)benzamidine acetate]
8.05	COc1cc(C(Nc2ccc(C(=N)N)cc2)c2nn(-c3ncccn3)c(=O)[nH]2)c(F)c2c1OCC2 (racemic) [Example 40, (R) and (S)-4-{[(4-fluoro-7-methoxy-2,3-dihydrobenzofuran-5-yl)-(5-oxo-1-pyrimidin-2-yl-4,5-dihydro-1H-[1,2,4]triazol-3-yl)methyl]amino}benzamidine acetate]
8.33	COc1cc(C(Nc2ccc(C(=N)N)cc2)c2nn(-c3ccccc3C(N)=O)c(=O)[nH]2)cc2c1OCOC2 (racemic) [Example 211, 2-{3-[(4-Carbamimidoylphenylamino)-(8-methoxy-4H-benzo[1,3]dioxin-6-yl)methyl]-5-oxo-4,5-dihydro[1,2,4]triazol-1-yl}benzamide]
7.99	COc1cc(C(Nc2ccc(C(=N)N)cc2)c2nn(-c3ncccc3N)c(=O)[nH]2)cc(OC)n1 (racemic) [Example 55, (R) and (S)-4-({[1-(3-aminopyridin-2-yl)-5-oxo-4,5-dihydro-1H-[1,2,4]triazol-3-yl]-(2,6-dimethoxypyridin-4-yl)methyl}amino)benzamidine acetate]
8.25	COc1cc(C(Nc2ccc(C(=N)N)cc2)c2nn(-c3ccsc3C(=O)O)c(=O)[nH]2)ccc1OCCCO (racemic) [Example 206, 3-(3-{(R) and (S)-(4-Carbamimidoylphenylamino)-[4-(3-hydroxypropoxy)-3-methoxyphenyl]methyl}-5-oxo-4,5-dihydro-[1,2,4]triazol-1-yl)thiophene-2-carboxylic acid]
8.57	CCc1cc(OCCCO)c(F)c(C(Nc2ccc(C(=N)N)cc2)c2nn(-c3ncccc3N)c(=O)[nH]2)c1 (centres unmarked) [Example 204, 4-({[1-(3-Aminopyridin-2-yl)-5-oxo-4,5-dihydro-1H-[1,2,4]triazol-3-yl]-[5-ethyl-2-fluoro-3-(3-hydroxypropoxy)phenyl]methyl}amino)benzamidine acetate]
7.80	COc1ccc(C(Nc2ccc(C(=N)N)cc2)c2nn(-c3ncsc3C(=O)O)c(=O)[nH]2)cc1OC (racemic) [Example 193, (R) and (S)-4-{3-[(4-Carbamimidoylphenylamino)-(3,4-dimethoxyphenyl)methyl]-5-oxo-4,5-dihydro-[1,2,4]triazol-1-yl}-thiazole-5-carboxylic acid]
8.51	COc1cc(O[C@@H](C)CO)c(F)c(C(Nc2ccc(C(=N)N)cc2)c2nn(-c3ncccn3)c(=O)[nH]2)c1 (mixture of isomers) [Example 217, (R) and (S)-4-{[[2-Fluoro-3-((S)-2-hydroxy-1-methylethoxy)-5-methoxyphenyl]-(5-oxo-1-pyrimidin-2-yl-4,5-dihydro-1H-[1,2,4]triazol-3-yl)methyl]amino}benzamidine acetate]
7.90	COCCOc1cc(C)cc(C(Nc2ccc(C(=N)N)cc2)c2nn(-c3ncccn3)c(=O)[nH]2)c1 (racemic) [Example 94, 4-{[(R) and (S)-[3-(2-methoxyethoxy)-5-methylphenyl]-(5-oxo-1-pyrimidin-2-yl-4,5-dihydro-1H-[1,2,4]triazol-3-yl)methyl]amino}benzamidine acetate]
8.00	CCc1cc(C(Nc2ccc(C(=N)N)cc2)c2nn(-c3ncsc3C(=O)O)c(=O)[nH]2)cc2c1OCOC2 (racemic) [Example 179, (R) and (S)-4-{3-[(4-carbamimidoylphenylamino)-(8-ethyl-4H-benzo[1,3]dioxin-6-yl)methyl]-5-oxo-4,5-dihydro-[1,2,4]triazol-1-yl}thiazole-5-carboxylic acid]
8.27	COc1cc(C(Nc2ccc(C(=N)N)cc2)c2nn(-c3ncccn3)c(=O)[nH]2)cc(CC#N)c1OC (racemic) [Example 26, (R) and (S)-4-{[(3-cyanomethyl-4,5-dimethoxyphenyl)-(5-oxo-1-pyrimidin-2-yl-4,5-dihydro-1H-[1,2,4]triazol-3-yl)methyl]amino}benzamidine acetate]
8.05	COc1cc(C(Nc2ccc(C(=N)N)cc2)c2nn(-c3cccnn3)c(=O)[nH]2)cc2c1OCOC2 (racemic) [Example 150, (R) and (S)-4-{[(8-methoxy-4H-benzo[1,3]dioxin-6-yl)-(5-oxo-1-pyridazin-3-yl-4,5-dihydro-1H[1,2,4]triazol-3-yl)methyl]amino}benzamidine acetate]
8.20	COc1cc(C(Nc2ccc(C(=N)N)cc2)c2nn(-c3ncccc3F)c(=O)[nH]2)cc2c1OCOC2 (racemic) [Example 133, (R) and (S)-4-({[1-(3-fluoropyridin-2-yl)-5-oxo-4,5-dihydro-1H-[1,2,4]triazol-3-yl]-(8-methoxy-4H-benzo[1,3]dioxin-6-yl)methyl}amino)benzamidine acetate]
7.97	COc1cc(C(Nc2ccc(C(=N)N)cc2)c2nn(-c3ncccn3)c(=O)[nH]2)cc2c1OCOC2 (racemic) [Example 21, (R) and (S)-4-{[(8-methoxy-4H-benzo[1,3]dioxin-6-yl)-(5-oxo-1-pyrimidin-2-yl-4,5-dihydro-1H-[1,2,4]triazol-3-yl)methyl]amino}benzamidine acetate]
7.93	COc1cc(C(Nc2ccc(C(=N)N)cc2)c2nn(-c3ncccn3)c(=O)[nH]2)cc(OCCO)c1OC (racemic) [Example 159, 4-({(R) and (S)-[3-(2-hydroxyethoxy)-4,5-dimethoxyphenyl]-(5-oxo-1-pyrimidin-2-yl-4,5-dihydro-1H-[1,2,4]triazol-3-yl)methyl}amino)benzamidine acetate]
8.29	COc1cc(OCCF)c(F)c(C(Nc2ccc(C(=N)N)cc2)c2nn(-c3ncccc3N)c(=O)[nH]2)c1 (racemic) [Example 136, (R) and (S)-4-({[1-(3-aminopyridin-2-yl)-5-oxo-4,5-dihydro-1H-[1,2,4]triazol-3-yl]-[2-fluoro-3-(2-fluoroethoxy)-5-methoxyphenyl]methyl}amino)benzamidine acetate]
7.96	COc1cc(F)c(C(Nc2ccc(C(=N)N)cc2)c2nn(-c3cnccn3)c(=O)[nH]2)cc1OC (racemic) [Example 101, 4-{[(R) and (S)-(2-fluoro-4,5-dimethoxyphenyl)-(5-oxo-1-pyrazin-2-yl-4,5-dihydro-1H-[1,2,4]triazol-3-yl)methyl]amino}benzamidine acetate]
7.95	COc1cc(C(Nc2ccc(C(=N)N)cc2)c2nn(-c3ncccc3F)c(=O)[nH]2)cc(OC)n1 (racemic) [Example 56, (R) and (S)-4-{[(2,6-dimethoxypyridin-4-yl)-[1-(3-fluoropyridin-2-yl)-5-oxo-4,5-dihydro-1H-[1,2,4]triazol-3-yl)methyl]amino}benzamidine acetate]
8.23	COc1ccccc1-n1nc(C(Nc2ccc(C(=N)N)cc2)c2cc(C)cc(OC)c2F)[nH]c1=O (centres unmarked) [Example 14, 4-({(2-fluoro-3-methoxy-5-methylphenyl)-[1-(2-methoxyphenyl)-5-oxo-4,5-dihydro-1H-[1,2,4]triazol-3-yl]methyl}amino)benzamidine trifluoroacetate]
7.65	COc1cc(C(Nc2ccc(C(=N)N)cc2)c2nn(-c3ncsc3C(=O)O)c(=O)[nH]2)c(F)c2c1OCCO2 (single isomer, unassigned) [Example 188, 4-{3-[(4-Carbamimidoylphenylamino)-(5-fluoro-8-methoxy-2,3-dihydro-benzo[1,4]dioxin-6-yl)-methyl]-5-oxo-4,5-dihydro-[1,2,4]triazol-1-yl}thiazole-5-carboxylic acid]
8.28	CCc1cc(OC)cc(C(Nc2ccc(C(=N)N)cc2)c2nn(-c3ncccn3)c(=O)[nH]2)c1 (racemic) [Example 75, (R) and (S)-4-{[(3-ethyl-5-methoxyphenyl)-(5-oxo-1-pyrimidin-2-yl-4,5-dihydro-1H-[1,2,4]triazol-3-yl)methyl]amino}benzamidine acetate]
